# Measurements: patent publication US20230278972A1, “SUBSTITUTED HALOALKYL SULFONANILIDE HERBICIDES” (FMC Corporation, priority 2020, published 2023)
# Tests used:
# Type in all cases: in vivo
# kochia (Bassia scoparia) [1] = assay: Test A preemergence, kochia; details: Preemergence; for Plant response rating, Kochia: 0 to 100 scale (0 no effect, 100 complete control)
# Procedure, shortened: (§1)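 Postemergence ratings come from foliar sprays onto one- to two-leaf plants of 2 to 10 cm grown in loam/sand; preemergence ratings come from a directed spray onto the soil of newly seeded pots. Formulation was a surfactant-containing non-phytotoxic solvent blend.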
# [2] = test system: ragweed (common ragweed, Ambrosia artemisiifolia); assay: Test A postemergence, ragweed; details: Postemergence, 0 to 100 scale (0 no effect, 100 complete control); for Plant response rating, Ragweed: 125 g ai/ha; for Ragweed plant response rating: 500 g ai/ha, visual injury vs untreated controls after approx. 10 days
# Procedure, shortened: as §1
# [3] = test system: barnyardgrass (Echinochloa crus-galli); assay: Test A preemergence, barnyardgrass; details: Preemergence; for Plant response rating, Barnyardgrass: 0 to 100 scale (0 no effect, 100 complete control)
# Procedure, shortened: as §1
# [4] = test system: Foxtail, Giant (giant foxtail, Setaria faberi); assay: Test A postemergence, Foxtail, Giant; details: Postemergence, 0 to 100 scale (0 no effect, 100 complete control); for Plant response rating, Foxtail, Giant: 125 g ai/ha; for Foxtail, Giant plant response rating: 500 g ai/ha, visual injury vs untreated controls after approx. 10 days
# Procedure, shortened: as §1
# [5] = test system: Ryegrass, Italian (Italian ryegrass, Lolium multiflorum); assay: Test A preemergence, Ryegrass, Italian; details: Preemergence; for Plant response rating, Ryegrass, Italian: 0 to 100 scale (0 no effect, 100 complete control)
# Procedure, shortened: as §1
# corn (Zea mays) = assay: Test A postemergence, corn; details: Postemergence, 0 to 100 scale (0 no effect, 100 complete control); for Plant response rating, Corn: 125 g ai/ha; for Corn plant response rating: 500 g ai/ha, visual injury vs untreated controls after approx. 10 days
# Procedure, shortened: as §1
# [6] = test system: Foxtail, Giant (giant foxtail, Setaria faberi); assay: Test A preemergence, Foxtail, Giant; details: Preemergence; for Plant response rating, Foxtail, Giant: 0 to 100 scale (0 no effect, 100 complete control)
# Procedure, shortened: as §1
# [7] = test system: galium (catchweed bedstraw, Galium aparine); assay: Test A postemergence, galium; details: Postemergence, 0 to 100 scale (0 no effect, 100 complete control); for Plant response rating, Galium: 125 g ai/ha; for Galium plant response rating: 500 g ai/ha, visual injury vs untreated controls after approx. 10 days
# Procedure, shortened: (§2)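 Barnyardgrass, wheat and galium were treated postemergence at the one- to two-leaf stage (2 to 10 cm) with chemicals formulated in non-phytotoxic solvent plus surfactant, grown in loam soil–sand pots. Pigweed was sown in the same blend and given a preemergence directed soil spray.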
# [8] = test system: ragweed (common ragweed, Ambrosia artemisiifolia); assay: Test A preemergence, ragweed; details: Preemergence; for Plant response rating, Ragweed: 0 to 100 scale (0 no effect, 100 complete control)
# Procedure, shortened: as §1
# [9] = test system: pigweed (Amaranthus retroflexus); assay: Test A preemergence, pigweed; details: for Plant response rating, Pigweed: 0 to 100 scale (0 no effect, 100 complete control)
# Source text: Seeds of plant species selected from barnyardgrass (Echinochloa crus-galli), kochia (Bassia scoparia), ragweed (common ragweed, Ambrosia artemisiifolia), Ryegrass, Italian (Italian ryegrass, Lolium multiflorum), Foxtail, Giant (giant foxtail, Setaria faberi), and pigweed (Amaranthus retroflexus) were planted into a blend of loam soil and sand and treated preemergence with a directed soil spray using test chemicals formulated in a non-phytotoxic solvent mixture which included a surfactant. At the same time, plants selected from these weed species and also wheat (Triticum aestivum), corn (Zea mays), blackgrass (Alopecurus myosuroides), and galium (catchweed bedstraw, Galium aparine) were planted in pots containing the same blend of loam soil and sand and treated with postemergence applications of test chemicals formulated in the same manner. Plants ranged in height from 2 to 10 cm and were in the one- to two-leaf stage for the postemergence treatment. […] A dash (-) response means no test result.
# [10] = test system: blackgrass (Alopecurus myosuroides); assay: Test A postemergence, blackgrass; details: Postemergence, 0 to 100 scale (0 no effect, 100 complete control); for Plant response rating, Blackgrass: 125 g ai/ha; for Blackgrass plant response rating: 500 g ai/ha, visual injury vs untreated controls after approx. 10 days
# Procedure, shortened: as §1
# [11] = test system: pigweed (Amaranthus retroflexus); assay: Test A postemergence, pigweed; details: Postemergence, 0 to 100 scale (0 no effect, 100 complete control); for Plant response rating, Pigweed: 125 g ai/ha; for Pigweed plant response rating: 500 g ai/ha, visual injury vs untreated controls after approx. 10 days
# Procedure, shortened: as §1
# [12] = test system: Ryegrass, Italian (Italian ryegrass, Lolium multiflorum); assay: Test A postemergence, Ryegrass, Italian; details: Postemergence, 0 to 100 scale (0 no effect, 100 complete control); for Plant response rating, Ryegrass, Italian: 125 g ai/ha; for Ryegrass, Italian plant response rating: 500 g ai/ha, visual injury vs untreated controls after approx. 10 days
# Procedure, shortened: as §1
# [13] = test system: wheat (Triticum aestivum); assay: Test A postemergence, wheat; details: Postemergence, 0 to 100 scale (0 no effect, 100 complete control); for Plant response rating, Wheat: 125 g ai/ha; for Wheat plant response rating: 500 g ai/ha, visual injury vs untreated controls after approx. 10 days
# Procedure, shortened: as §2
# kochia (Bassia scoparia) [14] = assay: Test A postemergence, kochia; details: Postemergence, 0 to 100 scale (0 no effect, 100 complete control); for Plant response rating, Kochia: 125 g ai/ha; for Kochia plant response rating: 500 g ai/ha, visual injury vs untreated controls after approx. 10 days
# Procedure, shortened: as §1
# [15] = 125 g ai/ha, visual injury on 0 to 100 scale (0 no effect, 100 complete control), approximately 10 days
# [16] = 125 g ai/ha, visual injury, approx. 10 days
Structure (SMILES),"Plant response rating, Kochia (kochia (Bassia scoparia) [1]; 500 g ai/ha)",Ragweed plant response rating [2],"Plant response rating, Barnyardgrass ([3]; 500 g ai/ha)","Foxtail, Giant plant response rating [4]","Plant response rating, Ryegrass, Italian ([5]; 500 g ai/ha)",Corn plant response rating (corn (Zea mays)),"Plant response rating, Foxtail, Giant ([6]; 500 g ai/ha)",Galium plant response rating [7],"Plant response rating, Ragweed ([8]; 500 g ai/ha)","Plant response rating, Pigweed ([9]; 500 g ai/ha)",Blackgrass plant response rating [10],Pigweed plant response rating [11],"Ryegrass, Italian plant response rating [12]",Wheat plant response rating [13],Kochia plant response rating (kochia (Bassia scoparia) [14]),"Plant response rating, Kochia (kochia (Bassia scoparia) [1]; [16])","Plant response rating, Ragweed [2]","Plant response rating, Barnyardgrass [3, 16]","Plant response rating, Foxtail, Giant [4]","Plant response rating, Ryegrass, Italian [5, 16]",further results
Cc1cc(C)c(-c2cc(Cl)nn(C)c2=O)cc1NS(=O)(=O)C(F)(F)F [Compound 72],100,70,100,90,100,50,100,90,90,100,80,80,80,70,90,–,–,–,–,–,"Kochia plant response rating (kochia (Bassia scoparia) [1]; [15]): 100; Plant response rating, Ragweed ([2]; visual injury approx. 10 days): 20; Barnyardgrass plant response rating [3, 15]: 90; Plant response rating, Foxtail, Giant ([4]; visual injury approx. 10 days): 90; Ryegrass, Italian plant response rating [5, 15]: 90; Plant response rating, Corn (corn (Zea mays); visual injury approx. 10 days): 0; Foxtail, Giant plant response rating [6, 15]: 100; Plant response rating, Galium ([7]; visual injury approx. 10 days): 70; Ragweed plant response rating [8, 15]: 80; Pigweed plant response rating [9, 15]: 80; Plant response rating, Blackgrass ([10]; visual injury approx. 10 days): 50; Plant response rating, Pigweed ([11]; visual injury approx. 10 days): 60; Plant response rating, Ryegrass, Italian ([12]; visual injury approx. 10 days): 60; Plant response rating, Wheat ([13]; visual injury approx. 10 days): 60; Plant response rating, Kochia (kochia (Bassia scoparia) [14]; visual injury approx. 10 days): 40"
Cc1cc(Cl)c(N(S(=O)(=O)C(F)(F)F)S(=O)(=O)C(F)(F)F)cc1C(=O)N1CCC(Cl)CC1 [Compound 200],90,30,100,20,90,20,100,90,90,100,0,90,20,70,40,60,0,30,0,30,"Plant response rating, Corn (corn (Zea mays)): 0; Plant response rating, Foxtail, Giant [6, 16]: 90; Plant response rating, Galium [7]: 60; Plant response rating, Ragweed [8, 16]: 40; Plant response rating, Pigweed [9, 16]: 100; Plant response rating, Blackgrass [10]: 0; Plant response rating, Pigweed [11]: 60; Plant response rating, Ryegrass, Italian [12]: 20; Plant response rating, Wheat [13]: 20; Plant response rating, Kochia (kochia (Bassia scoparia) [14]): 10"
Cc1cc(C)c(N(S(=O)(=O)C(F)(F)F)S(=O)(=O)C(F)(F)F)cc1C1=NOC2(CCCCC2)C1 [Compound 198],80,80,100,30,90,20,100,90,80,100,0,70,40,40,60,60,20,80,0,60,"Plant response rating, Corn (corn (Zea mays)): 20; Plant response rating, Foxtail, Giant [6, 16]: 100; Plant response rating, Galium [7]: 70; Plant response rating, Ragweed [8, 16]: 70; Plant response rating, Pigweed [9, 16]: 70; Plant response rating, Blackgrass [10]: 10; Plant response rating, Pigweed [11]: 50; Plant response rating, Ryegrass, Italian [12]: 30; Plant response rating, Wheat [13]: 20; Plant response rating, Kochia (kochia (Bassia scoparia) [14]): 20"
Cc1cc(C)c(N(S(=O)(=O)C(F)(F)F)S(=O)(=O)C(F)(F)F)cc1C1=NOC2(CCC2)C1 [Compound 196],80,30,90,0,70,0,100,80,0,100,0,50,30,0,20,70,0,0,0,20,"Plant response rating, Corn (corn (Zea mays)): 0; Plant response rating, Foxtail, Giant [6, 16]: 30; Plant response rating, Galium [7]: 60; Plant response rating, Ragweed [8, 16]: 0; Plant response rating, Pigweed [9, 16]: 50; Plant response rating, Blackgrass [10]: 0; Plant response rating, Pigweed [11]: 30; Plant response rating, Ryegrass, Italian [12]: 0; Plant response rating, Wheat [13]: 0; Plant response rating, Kochia (kochia (Bassia scoparia) [14]): 10"
